Experiments:
[1] = system: SNU-5 gastric cancer cells; assay: Inhibition of tumor growth of subcutaneously implanted SNU-5 cells in SCID mice; format: in vivo; conditions: all three dose levels tested (3, 10, 30 mg/kg/day)
Procedure: Compound 3 was investigated for its ability to inhibit tumor growth of subcutaneously implanted SNU-5 gastric cancer cells in severe combined immunodeficient (SCID) mice. SNU-5 cells (CRL-5973, American Type Culture Collection, Manassas, Va.) were cultured in ISCOVE's Modified Dulbecco's Medium (IMDM) (Invitrogen, Carlsbad, Calif.) supplemented with 10% fetal bovine serum (FBS) (Hyclone, Logan, Utah), 100 units/mL of penicillin, […] of streptomycin (Invitrogen, Carlsbad, Calif.), and 2 mM L-glutamine. Cells were cultured for fewer than 4 passages prior to implantation. Female SCID mice (Fox Chase SCID, CB-17, mice weighing 17 to 19 g obtained from Charles River Laboratories, Wilmington, MA) were injected subcutaneously (s.c.) with 5×10^6 SNU-5 cells into the right dorsal axillary region on Day 0. […]
Compound 3, formulated in a vehicle containing 30% (w/v) Propylene Glycol and 10% Solutol (Sigma-Aldrich, St Louis, Mo.) as a suspended homogenous form, was administered orally (p.o.) once daily (QD) at total daily doses of 3, 10, and 30 mg/kg/day for 14 days. Tumor volumes (calculated using the ellipsoid formula, […], where length and width represented the largest and smallest dimensions of the tumor, respectively) were recorded for two weeks after the initiation of treatment. […]

[2] = system: A549HGF cells; assay: Inhibition of tumor metastasis to the lungs, subcutaneous A549HGF tumors in SCID mice; format: in vivo
Procedure: Compound 3 was investigated for its ability to inhibit the metastasis of subcutaneously implanted tumors to the lungs of severe combined immunodeficient (SCID) mice. Accordingly, A549 cells (A549HGF-1m1115, transfected with hepatocyte growth factor, luciferase, and green fluorescent protein) were cultured in RPMI1640 medium (Invitrogen, Carlsbad, Calif.) supplemented with 10% fetal bovine serum (FBS) (Hyclone, Logan, Utah), 100 units/mL of penicillin, […] of streptomycin (Invitrogen, Carlsbad, Calif.), and 2 mM L-glutamine for fewer than 4 passages prior to implantation. […]
Female SCID mice were injected subcutaneously (s.c.) with 5×10^6 A549HGF cells into the right dorsal axillary region on Day 0. […] Ectopic tumor measurements were recorded twice a week for 3 weeks after the initiation of treatment.
In order to evaluate the anti-metastatic potential of Compound 3, at the termination of the study all animal lung tissues were harvested and lysed by homogenization for ex vivo quantification via luciferase luminescence.

Cn1cc(Nc2nn3c(C(F)(F)c4ccc5ncccc5c4)nnc3s2)cn1 [Compound 3, 3-(Difluoro(quinolin-6-yl)methyl)-N-(1-methyl-1H-pyrazol-4-yl)-[1,2,4]triazolo[3,4-b][1,3,4]thiadiazol-6-amine]
anti-tumor activity [1]: significant and dose-dependent anti-tumor activity
formation of lung metastases ([2]; 60 mg/kg/day compared to vehicle controls, p<0.02): significantly inhibits the formation of lung metastases
change in primary A549 tumor cell growth at the site of implantation vs vehicle ([2]; 30 or 60 mg/kg/day p.o. QD, 22 days): no significant change
